Measured values published in paper PMC9271048, “Probing strigolactone perception mechanisms with rationally designed small-molecule agonists stimulating germination of root parasitic weeds” (Nature Communications, 2022).

Legend:
Assay type in all cases: biochemical
[1] = target: ShHTL7 (Striga hermonthica, UniProt A0A0M3PNA2); assay: Mass spectrometric analysis of covalent modification of ShHTL7; settings: for covalent modification of ShHTL7: MS of compound-treated ShHTL7; for mass increase of compound-treated ShHTL7 protein: Q-TOF MS of full-length protein, modification on His246
Description: This was consistent with the hydrolysis of natural and synthetic SLs, in which, the (2′R)-isomers are more prone to hydrolysis by ShHTL7 than the (2′S)-isomers[26],[40]. […] Based on the above observations, we inferred that (S)-4a may have similar biochemical properties as 2′R-configured SLs. We then examined whether (S)-4a binding, just as for rac-GR24, would result in a covalently linked molecule in ShHTL7 by using Q-TOF mass spectrometry (SYNAPT-G2-Si, Waters company) analysis. […] For (R)-4a and 4g, a weak peak (increase of 95 Da or 94 Da) of similar modification was found, respectively (Fig. 3). A similar modification was not observed in 4h and 4i treated samples (Supplementary Fig. 12b, c). To furtherly identify the specific modification of the increased mass of 94 Da or 95 Da, we incubated (R)-4a, (S)-4a, and 4g with ShHTL7, followed by gel digestion and MS/MS analysis. […] No covalently linked molecule presence was identified in 4h treated ShHTL7 (Supplementary Fig. 12b). We assume that this is due to the fact that the N-CH3 D-lactam modified His246 is more reactive, resulting in quick decomposition of the intermediate.
For LC-MS analysis: a 200 μL reaction solution (100 mM HEPES, 150 mM NaCl, pH 7.0) containing 10, or 400 μM of tested samples 4a, (R)- and (S)-4a, and 4g-i, and 100 μg of recombinant ShHTL7 or its mutants was incubated at 25 °C for 30 min. Subsequently, the solution was filtered and analyzed by a nanoACQUITY UPLC system, which was directly interfaced with an SYNAPT-G2-Si mass spectrometer produced by Waters Company. For LC-MS/MS analysis, the above chemicals treated ShHTL7 reaction solution was subjected to the SDS-PAGE analysis. The corresponding protein band around 30 KDa was excised, respectively, then digested with trypsin (Promega) in NH4HCO3 solution (50 mM) at 37 °C for 24 h[23],[26]–[28]. The covalent modification of C5H5O2/C6H6O on the peptide was analyzed by a Thermo-Dionex Ultimate 3000 HPLC system, which was directly interfaced with a Thermo Orbitrap Fusion Lumos mass spectrometer. MS-MS spectra are generated by pLabel software[53],[54].

[2] = target: ShHTL7 Y26F (Striga hermonthica, UniProt A0A0M3PNA2, Y26F); assay: YLG competitive inhibition, ShHTL7 mutant Y26F
Description: (§1) To clarify the dynamics of how the catalytic triad affects hydrolysis by ShHTL7, we performed MD simulations to study the differences between (R)-4a and (S)-4a (Supplementary Fig. 21). […] To further characterize our computational models, we performed mutation studies of the key residues in the active pockets that may have interactions with our molecules. Indeed, a number of the mutations of specific residues altered the IC50 values, supporting our simulated models (Supplementary Fig. 20b).
(§2) The excitation and emission wavelengths of YLG are 480 and 520 nm, respectively. We used a fluorescence spectrophotometer (CARY Eclipse) to detect the fluorescence intensity change of YLG during the enzymatic hydrolysis assay process. All the testing compounds and YLG were dissolved in DMSO and prepared as stock solutions just before use. […] The changes of fluorescence at 520 nm of each well were recorded every 1 min for 30 min. Using the reaction mixture without adding enzyme and tested compounds as the background control. After subtracting the background hydrolysis, a linear fluorescence increase in 8 min was used for further inspection. The IC50 values were determined via fitting relative inhibition percentages with the varying concentrations of compounds in Microsoft Excel.
(§3) Supplementary Fig. 20. […]

[3] = target: ShHTL7 S95C (Striga hermonthica, UniProt A0A0M3PNA2, S95C); assay: YLG competitive inhibition, ShHTL7 mutant S95C
Description: as §1, §2, §3

[4] = target: ShHTL7 T157Y (Striga hermonthica, UniProt A0A0M3PNA2, T157Y); assay: YLG competitive inhibition, ShHTL7 mutant T157Y
Description: as §1, §2, §3

[5] = target: ShHTL7 M219A (Striga hermonthica, UniProt A0A0M3PNA2, M219A); assay: YLG competitive inhibition, ShHTL7 mutant M219A
Description: as §1, §2, §3

Chain of ShHTL7 (A0A0M3PNA2 entry or part of it): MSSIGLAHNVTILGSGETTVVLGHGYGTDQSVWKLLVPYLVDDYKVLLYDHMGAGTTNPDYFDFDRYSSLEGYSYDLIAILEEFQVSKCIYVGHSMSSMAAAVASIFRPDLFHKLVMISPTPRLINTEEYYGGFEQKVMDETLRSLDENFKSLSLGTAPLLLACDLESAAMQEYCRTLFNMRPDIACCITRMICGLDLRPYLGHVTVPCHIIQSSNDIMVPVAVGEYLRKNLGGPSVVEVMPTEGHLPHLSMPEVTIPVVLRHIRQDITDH
Chain of ShHTL7 S95C (A0A0M3PNA2 whole entry S95C): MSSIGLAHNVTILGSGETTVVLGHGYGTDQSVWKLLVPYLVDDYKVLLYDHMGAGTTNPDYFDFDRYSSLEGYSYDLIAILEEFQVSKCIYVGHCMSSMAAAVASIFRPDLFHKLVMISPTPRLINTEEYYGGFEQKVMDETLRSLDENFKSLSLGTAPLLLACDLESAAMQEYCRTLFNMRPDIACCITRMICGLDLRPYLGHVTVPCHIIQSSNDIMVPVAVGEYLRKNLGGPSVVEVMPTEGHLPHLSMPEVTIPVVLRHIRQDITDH
Chain of ShHTL7 M219A (A0A0M3PNA2 whole entry M219A): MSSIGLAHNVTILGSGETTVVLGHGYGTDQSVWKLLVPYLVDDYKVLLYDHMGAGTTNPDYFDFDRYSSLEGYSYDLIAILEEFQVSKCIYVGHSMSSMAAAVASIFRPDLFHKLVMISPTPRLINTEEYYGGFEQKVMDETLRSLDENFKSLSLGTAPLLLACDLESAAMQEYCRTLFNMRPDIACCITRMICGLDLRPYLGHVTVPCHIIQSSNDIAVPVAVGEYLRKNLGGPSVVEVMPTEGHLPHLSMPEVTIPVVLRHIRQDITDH
Chain of ShHTL7 Y26F (A0A0M3PNA2 whole entry Y26F): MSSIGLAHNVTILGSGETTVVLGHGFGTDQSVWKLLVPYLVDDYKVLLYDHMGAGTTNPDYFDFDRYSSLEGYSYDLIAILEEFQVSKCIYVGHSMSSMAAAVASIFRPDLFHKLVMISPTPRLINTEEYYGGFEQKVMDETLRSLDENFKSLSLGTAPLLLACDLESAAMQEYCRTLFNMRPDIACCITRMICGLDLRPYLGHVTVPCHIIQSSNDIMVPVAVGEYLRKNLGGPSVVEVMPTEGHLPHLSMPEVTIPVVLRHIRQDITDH
Chain of ShHTL7 T157Y (A0A0M3PNA2 whole entry T157Y): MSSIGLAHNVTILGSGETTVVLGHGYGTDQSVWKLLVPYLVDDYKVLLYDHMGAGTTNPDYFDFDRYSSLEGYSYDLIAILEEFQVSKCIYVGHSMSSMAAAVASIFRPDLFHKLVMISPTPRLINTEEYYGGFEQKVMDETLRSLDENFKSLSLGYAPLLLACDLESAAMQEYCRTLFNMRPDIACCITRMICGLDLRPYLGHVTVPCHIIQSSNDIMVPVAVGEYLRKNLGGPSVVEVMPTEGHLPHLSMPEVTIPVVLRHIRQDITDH

Compound | covalent modification of ShHTL7 [1] | mass increase of compound-treated ShHTL7 protein [1] [Da] | IC50 [2] [µM] | IC50 [3] [µM] | IC50 [4] [µM] | IC50 [5] [µM]
CC1=CC(CC(=O)N2CCN(C(=O)COc3ccc(Br)cc3C)CC2)OC1=O (stereo not shown) [4i] | not observed | – | – | – | – | –
CC1=C[C@@H](OC(=O)N2CCN(C(=O)COc3ccc(Br)cc3C)CC2)OC1=O [(R)-4a] | – | 95 | 29.9 | 43.7 | 23.3 | > 100
CC1=CC(OC(=O)N2CCN(C(=O)COc3ccc(Br)cc3C)CC2)N(C)C1=O (stereo not shown) [4h] | not observed | – | – | – | – | –
CC1=CC(OC(=O)N2CCN(C(=O)COc3ccc(Br)cc3C)CC2)CC1=O (stereo not shown) [4g] | – | 94 | – | – | – | –
CC1=C[C@H](OC(=O)N2CCN(C(=O)COc3ccc(Br)cc3C)CC2)OC1=O [(S)-4a] | – | 94 | 0.233 | 0.293 | 0.949 | 6.53
